Results on nine compounds are retold here after patent US20220324835A1 (Nurix Therapeutics, Inc., priority 2018, published 2022).

For assay [1], the system named is T-cell. Briefly: CD25 cell surface staining on T-cells stimulated with anti-CD3 antibody alone (Biological Example 2). It is filed as cell-based. The conditions noted are these: primary human total T-cells, baseline = anti-CD3/anti-CD28 stimulated cells without inhibitor, read-out: CD25 staining, Anti-CD3 stimulation, fold change over baseline; for fold induction at 1 µM: 1 μM compound; for fold induction at 8 µM: 8 μM compound.

Assay [2] deals with T1, Cbl-b (Homo sapiens, UniProt Q13191). Briefly: Cbl-b activity assay (Cbl-b inhibition assay), TR-FRET of Cbl-b interaction with UbcH5B-Ub. It is filed as biochemical. As to conditions: assay buffer with 100 mM NaCl, 60 nM Src kinase; read-out: Cbl-b activity IC50. Summed up:
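TR-FRET readout of Cbl-b binding to Bodipy-fluorescein N-terminally labeled Ub conjugated to UbcH5B C85K, measured with compound present. After compound incubation, 60 nM Src kinase with 1 mM ATP and 5 mM MgCl2 (final) was added for 1.5 h, then a further 1 h incubation; asterisked values used 50 mM NaCl buffer and 30 nM Src.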

Assay [3] concerns T-cell. In words: IL-2 secretion from T-cells stimulated with anti-CD3 antibody alone (Biological Example 2). Format: cell-based. As to conditions: primary human total T-cells, read-out: IL-2 secretion, Anti-CD3 stimulation, fold change over baseline; for fold induction at 1 µM: 1 μM compound; for fold induction at 8 µM: 8 μM compound.
For assay [4], the system named is T-cell. Briefly: CD25 cell surface staining on T-cells co-stimulated with anti-CD3 and anti-CD28 antibody (Biological Example 2). The conditions noted are these: Homo sapiens, T-cell, primary human total T-cells, baseline = anti-CD3/anti-CD28 stimulated cells without inhibitor, read-out: CD25 staining, Anti-CD3/Anti-CD28 stimulation, fold change over baseline; for fold induction at 0.3 µM: 0.3 μM compound; for fold induction at 1 µM: 1 μM compound; for fold induction at 4 µM: 4 μM compound. Format: cell-based, human. Summed up: (§1)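 No assay protocol given; T-cells stimulated with anti-CD3 alone or anti-CD3 plus anti-CD28, with or without Cbl-b inhibitor. Activation read as IL-2 secretion or CD25 surface staining, expressed as fold over baseline from uninhibited cells […].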

The target of assay [5] is T1, Cbl-b. Briefly: Cbl-b inhibition assay (Cbl-b activity assay, FRET, Biological Example 1; 100 mM NaCl, 60 nM Src kinase). It is filed as biochemical. The conditions noted are these: upper bound stated in text lists; read-out: IC50 values in the Cbl-b inhibition assay of Biological Example 1. In short, it runs like this: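 Inhibitor activity is measured as reduced terbium-to-fluorescein FRET between streptavidin-terbium on biotinylated Cbl-b and Bodipy-fluorescein ubiquitin carried by an irreversible UbcH5B-Ub conjugate, binding of which depends on Src phosphorylation of Cbl-b.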

Assay [6] relates to T-cell. Briefly: IL-2 secretion from T-cells co-stimulated with anti-CD3 and anti-CD28 antibody (Biological Example 2). The conditions noted are these: Homo sapiens, T-cell, primary human total T-cells, baseline = anti-CD3/anti-CD28 stimulated cells without inhibitor, read-out: IL-2 secretion, Anti-CD3/Anti-CD28 stimulation, fold change over baseline; for fold induction at 0.3 µM: 0.3 μM compound; for fold induction at 1 µM: 1 μM compound; for fold induction at 4 µM: 4 μM compound. It is filed as cell-based, human. Summed up:
as §1

T1 sequence (Q13191 36-427): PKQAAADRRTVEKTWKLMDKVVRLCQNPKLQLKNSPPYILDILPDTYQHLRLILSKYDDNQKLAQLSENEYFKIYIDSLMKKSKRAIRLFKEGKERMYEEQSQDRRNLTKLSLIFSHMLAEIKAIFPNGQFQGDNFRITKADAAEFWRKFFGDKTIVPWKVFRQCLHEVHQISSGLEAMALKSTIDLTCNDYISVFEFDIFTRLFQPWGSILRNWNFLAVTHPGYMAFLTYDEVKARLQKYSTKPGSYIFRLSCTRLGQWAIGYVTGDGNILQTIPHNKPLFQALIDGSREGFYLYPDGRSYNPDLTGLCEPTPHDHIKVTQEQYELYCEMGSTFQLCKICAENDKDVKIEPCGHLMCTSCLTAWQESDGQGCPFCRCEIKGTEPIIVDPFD

Consider `C[C@@H]1CN(C)CCN1c1cc2c(c(C(F)(F)F)c1)CN(c1cccc(C3(Cc4nncn4C)COC3)c1)C2=O` [Compound 390, (R)-6-(2,4-Dimethylpiperazin-1-yl)-2-(3-(3-((4-methyl-4H-1,2,4-triazol-3-yl)methyl)oxetan-3-yl)phenyl)-4-(trifluoromethyl)isoindolin-1-one], for which the fold induction at 1 µM in assay [1] is greater than 1; in assay [3] it was 0.151 to 0.2; in assay [4] it was 1.31 to 1.5; in assay [6], greater than 7.5. Further, the IC50 is less than 100 nM in assay [2] and no more than 100 nM in assay [5]. The fold induction at 0.3 µM in assay [4] was in the range of 1.01 to 1.3; in assay [6], 2.51 to 5.

For the compound `CN1CCN(c2cc3c(c(C(F)(F)F)c2)CN(c2cccc(C4(Cc5nncn5C)COC4)c2)C3=O)C(=O)C1` [Compound 391, 6-(4-Methyl-2-oxopiperazin-1-yl)-2-(3-(3-((4-methyl-4H-1,2,4-triazol-3-yl)methyl)oxetan-3-yl)phenyl)-4-(trifluoromethyl)isoindolin-1-one], the fold induction at 1 µM in assay [1] lay in the range of 0.801 to 1; in assay [3], 0.051 to 0.1; in assay [4], 1.01 to 1.3; in assay [6] it was 1.01 to 2.5. The IC50 in assay [2] was less than 100 nM; in assay [5], no more than 100 nM. Besides, the fold induction at 0.3 µM is 1.01 to 1.3 in assay [4] and 1.01 to 2.5 in assay [6].

Take `C[C@H](Cc1nncn1C)c1cccc(N2Cc3c(cc([C@H](C)N4CC[C@H](F)C4)cc3C(F)(F)F)C2=O)c1` [Compound 404, 6-((S)-1-((S)-3-fluoropyrrolidin-1-yl)ethyl)-2-(3-((R)-1-(4-methyl-4H-1,2,4-triazol-3-yl)propan-2-yl)phenyl)-4-(trifluoromethyl)isoindolin-1-one]: the fold induction at 1 µM in assay [1] is greater than 1; in assay [3], greater than 0.201; in assay [4] it was 1.31 to 1.5; in assay [6], greater than 7.5. In addition, the fold induction at 8 µM in assay [1] is greater than 1; in assay [3] it was greater than 0.201. Also, the IC50 is less than 100 nM in assay [2] and no more than 100 nM in assay [5]. Moreover, the values for the fold induction at 0.3 µM in assay [4] and in assay [6] were 1.31 to 1.5 and greater than 7.5, respectively. Moreover, the fold induction at 4 µM in assay [4] was 1.31 to 1.5; in assay [6], greater than 7.5.

As to `C[C@H](Cc1nncn1C)c1cccc(N2Cc3c(cc([C@@H](C)N4CC(O)C4)cc3C(F)(F)F)C2=O)c1` [Compound 405, 6-((R)-1-(3-hydroxyazetidin-1-yl)ethyl)-2-(3-((R)-1-(4-methyl-4H-1,2,4-triazol-3-yl)propan-2-yl)phenyl)-4-(trifluoromethyl)isoindolin-1-one], the fold induction at 1 µM in assay [1] was 0.801 to 1; in assay [3] it was greater than 0.201; in assay [4], 1.31 to 1.5; in assay [6], 5 to 7.5. For the same compound, the fold induction at 8 µM in assay [1] is greater than 1; in assay [3], greater than 0.201. The results for the half-maximal inhibitory concentration (IC50) in assay [2] and in assay [5] were less than 100 nM and no more than 100 nM, respectively. Besides, the fold induction at 0.3 µM lay within 1.01 to 1.3 in assay [4] and 2.51 to 5 in assay [6]. Besides, the fold induction at 4 µM in assay [4] was 1.31 to 1.5; in assay [6], greater than 7.5.

Turning to `C[C@H](Cc1nncn1C)c1cccc(N2Cc3c(cc([C@H](C)N4CC(O)C4)cc3C(F)(F)F)C2=O)c1` [Compound 406, 6-((S)-1-(3-hydroxyazetidin-1-yl)ethyl)-2-(3-((R)-1-(4-methyl-4H-1,2,4-triazol-3-yl)propan-2-yl)phenyl)-4-(trifluoromethyl)isoindolin-1-one], the fold induction at 1 µM in assay [1] was greater than 1; in assay [3] it was greater than 0.201; in assay [4] it was 1.31 to 1.5; in assay [6], greater than 7.5. Further, the fold induction at 8 µM in assay [1] is greater than 1; in assay [3] it was greater than 0.201. The IC50 in assay [2] is less than 100 nM; in assay [5] it was no more than 100 nM. Moreover, the results for the fold induction at 0.3 µM in assay [4] and in assay [6] were 1.01 to 1.3 and 5 to 7.5, respectively. The fold induction at 4 µM in assay [4] is 1.31 to 1.5; in assay [6] it was greater than 7.5.

Regarding `Cn1cnnc1[C@@H]1C[C@@H]1c1cccc(N2Cc3c(cc(CN4CC[C@H](F)C4)cc3C(F)(F)F)C2=O)c1` [Compound 409, 6-(((S)-3-fluoropyrrolidin-1-yl)methyl)-2-(3-((1S,2R)-2-(4-methyl-4H-1,2,4-triazol-3-yl)cyclopropyl)phenyl)-4-(trifluoromethyl)isoindolin-1-one], the fold induction at 1 µM in assay [1] is greater than 1; in assay [3] it was greater than 0.201; in assay [4] it was 1.31 to 1.5; in assay [6], greater than 7.5. The fold induction at 8 µM in assay [1] is greater than 1; in assay [3] it was greater than 0.201. The results for the IC50 in assay [2] and in assay [5] were less than 100 nM and no more than 100 nM, respectively. Further, the fold induction at 0.3 µM in assay [4] lay within 1.31 to 1.5; in assay [6], 2.51 to 5. Further, the fold induction at 4 µM in assay [4] is 1.51 to 1.75; in assay [6], greater than 7.5.

Consider `Cn1cnnc1CC1(c2cccc(N3Cc4c(cc(CN5C[C@@H](F)[C@@H](F)C5)cc4C(F)(F)F)C3=O)c2)COC1` [Compound 414, 6-((cis-3,4-Difluoropyrrolidin-1-yl)methyl)-2-(3-(3-((4-methyl-4H-1,2,4-triazol-3-yl)methyl)oxetan-3-yl)phenyl)-4-(trifluoromethyl)isoindolin-1-one], for which the fold induction at 1 µM was 0.801 to 1 in assay [1], 0.151 to 0.2 in assay [3], 1.31 to 1.5 in assay [4] and greater than 7.5 in assay [6]. Besides, the fold induction at 8 µM is greater than 1 in assay [1] and greater than 0.201 in assay [3]. In addition, the results for the IC50 in assay [2] and in assay [5] were less than 100 nM and no more than 100 nM, respectively. Moreover, the fold induction at 0.3 µM in assay [4] is 1.31 to 1.5; in assay [6] it was greater than 7.5. Moreover, the fold induction at 4 µM was 1.51 to 1.75 in assay [4] and greater than 7.5 in assay [6].

For the compound `C[C@H](c1cc2c(c(C(F)(F)F)c1)CN(c1cccc(C3(Cc4nncn4C)COC3)c1)C2=O)N1CCC(F)(F)C1` [Compound 419, (R)-6-(1-(3,3-difluoropyrrolidin-1-yl)ethyl)-2-(3-(3-((4-methyl-4H-1,2,4-triazol-3-yl)methyl)oxetan-3-yl)phenyl)-4-(trifluoromethyl)isoindolin-1-one], the fold induction at 1 µM in assay [1] is greater than 1; in assay [3], 0.151 to 0.2; in assay [4], 1.31 to 1.5; in assay [6] it was greater than 7.5. In addition, the fold induction at 8 µM in assay [1] was greater than 1; in assay [3] it was greater than 0.201. Also, the values for the IC50 in assay [2] and in assay [5] were less than 100 nM and no more than 100 nM, respectively. The figures for the fold induction at 0.3 µM in assay [4] and in assay [6] were 1.01 to 1.3 and 2.51 to 5, respectively. The fold induction at 4 µM was 1.31 to 1.5 in assay [4] and greater than 7.5 in assay [6].

On to `C[C@@H](c1cc2c(c(C(F)(F)F)c1)CN(c1cccc(C3(Cc4nncn4C)COC3)c1)C2=O)N1CCC(F)(F)C1` [Compound 420, (S)-6-(1-(3,3-difluoropyrrolidin-1-yl)ethyl)-2-(3-(3-((4-methyl-4H-1,2,4-triazol-3-yl)methyl)oxetan-3-yl)phenyl)-4-(trifluoromethyl)isoindolin-1-one], for which the fold induction at 1 µM was greater than 1 in assay [1], 0.151 to 0.2 in assay [3], 1.31 to 1.5 in assay [4] and greater than 7.5 in assay [6]. The fold induction at 8 µM was greater than 1 in assay [1] and greater than 0.201 in assay [3]. Further, the figures for the half-maximal inhibitory concentration (IC50) in assay [2] and in assay [5] were less than 100 nM and no more than 100 nM, respectively. For the same compound, the fold induction at 0.3 µM in assay [4] was 1.31 to 1.5; in assay [6], 2.51 to 5. Besides, the fold induction at 4 µM is 1.31 to 1.5 in assay [4] and greater than 7.5 in assay [6].
